Reference: patent US8178133B2, “Magnesium compositions and uses thereof” (Magceutics, Inc., priority 2007, dated 2012)

Key:
aging rats = experiment: Novel object recognition test in rats; type: in vivo, Sprague-Dawley rats
[1] = system: young and aging/aged rats; experiment: Elevated T-maze test, spatial working memory; type: in vivo, Sprague Dawley (SD) rats; conditions: MgCl2 diet
Description: Twenty 2-month old, male Sprague Dawley (SD) rats were housed in a temperature-controlled room (22° C. to 25° C.) with a dark period from 08:00 pm to 08:00 am daily. […] Over 7 days before the training and trial period began, each rat was handled and habituated to the maze and to Kellogg's Froot Loop cereal.
Each rat underwent a test of one trial, followed by an interval of 10-minutes, followed by another trial, and so on, for a total of 6 trials in one day. In each trial, each rat went through a sample run in the maze, followed by an interval of 15 seconds, followed by a choice run in the maze. In the sample run, the subject rat was forced to go to the left or to the right by the presence of a block, according to a pseudorandom sequence (with an equal number of left turns and right turns, and no more than two consecutive turns in the same direction). As a reward, Froot Loop cereal was available in the food well at the end of the run, regardless of the direction that was taken by virtue of the block. In the choice run, the block that had been present in the preceding sample run was removed, and the rat was allowed to choose to go to the left or to the right. […]
Three groups of animals (young, aging, and magnesium-treated aging rats) were used. […] Spatial working memory was assessed using a T-maze non-matching-to-place task. […] Spatial working memory was first assessed on an elevated T-maze. […]

[2] = system: mice genetically altered to present symptoms of Alzheimer's disease (AD); experiment: Modified Morris water maze test in AD mice; type: in vivo; conditions: AD mice aged 13 months
Description: Another group, the control group, of 10 mice that were genetically altered to present symptoms of AD were fed a Control Diet, a diet of normal solid food and water, for 30 days.
The pool used was a pool of water in a circular metal tank (150 cm in diameter and 50 cm in depth) having a water height of 30 cm and a water temperature that was maintained at ˜22° C. The pool was placed in a moderately lit area and surrounded by a black curtain. An acrylic platform (15 cm in diameter) was placed 2 cm below the surface of the water in the middle of one quadrant of the pool, equidistant from the center and the edge of the pool. Outside the pool, a cue was placed so as to be visible to a mouse in the maze, allowing a mouse to use it as a landmark for spatial orientation. The cue remained unchanged throughout the test period.
On the first day of the training and testing period, the water in the pool was transparent, such that the platform was visible. Each mouse was trained to swim towards the platform and to stand on the platform so as not to be submerged in the pool. […] The amount of time the mouse took to find the platform, referred to as “escape latency,” was recorded for each trial.
On the second day of the training and testing period, a small quantity of milk was added to the water in the pool, such that the pool was opaque and the platform was no longer visible. […]

[3] = system: young (9-month old) and aged (25-month old) rats; conditions: food containing 2% magnesium oxide for 8 days; cited from earlier work

In the case of `[Cl-].[Cl-].[Mg+2]` [MgCl2], the “novel object exploration preference” value (aging rats; aging rats 12-14 months, 6 mg/kg MgCl2 from 8 months of age, single training, 10 minute retention interval) is reported as “preferentially explored the novel object to the same extent as young rats”, the “novel object exploration preference” value (aging rats; aging rats, single training, 24 hours retention interval) is reported as “lose there ability to distinguish novel versus familiar objects” and the “novel object exploration preference” value (aging rats; aging rats, two training sessions (spaced training), 24-hour retention interval) is reported as “retained a high level of preference”. For the same compound, the “spatial working memory, choice accuracy with increased delay” value ([1]; 2 and 5 min delays) was “significantly enhanced the performance of the aging rats” and the “percentage of correct choices, learning of non-matching-to-place task” value ([1]; 15 sec delay) was “performed significantly better from their first trials”.

In the case of `COc1cc2c(cc1OC)C(=O)C(CC1CCN(Cc3ccccc3)CC1)C2` (centres unmarked) [aricept], the “effect on learning capacity, comparison with anti-AD drugs” value [2] is reported as “both being better at reducing the effects of AD on learning capacity than aricept”.

For `[O]=[Mg]` [magnesium oxide], the cognitive function [3] is listed as “some sign of improvement of cognitive function”.

In the case of `CC12CC3CC(C)(C1)CC(N)(C3)C2` [memantine], the “effect on learning capacity, comparison with anti-AD drugs” value [2] is reported as “better at reducing the effects of AD on learning capacity than aricept”.
